From patent US20100298141A1, “SUBSTITUTED PYRIDINE N-OXIDE HERBICIDES” (E. I. DU PONT DE NEMOURS AND COMPANY, priority 2007, published 2010)

What was measured:
giant foxtail [1] = assay: Test A pre-/postemergence greenhouse test; assay type: in vivo, Setaria faberi; conditions: for Foxtail, Giant plant response rating: 0 to 100 scale
Method in brief: (§1)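 Untreated controls served as the reference for visual injury ratings taken about ten days after spraying. The non-phytotoxic solvent/surfactant formulation was applied preemergence to seeded loam and sand and postemergence to plants two to ten cm high.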

velvetleaf = assay: Test A pre-/postemergence greenhouse test; assay type: in vivo, Abutilon theophrasti; conditions: for Velvetleaf plant response rating: 0 to 100 scale
Method in brief: as §1

wheat = assay: Test A pre-/postemergence greenhouse test; assay type: in vivo, Triticum aestivum; conditions: for Wheat plant response rating: 0 to 100 scale
Method in brief: as §1

corn = assay: Test A pre-/postemergence greenhouse test; assay type: in vivo, Zea mays; conditions: for Corn plant response rating: 0 to 100 scale
Method in brief: as §1

downy brome = assay: Test C pre-/postemergence test; assay type: in vivo, Bromus tectorum
Method in brief: (§2)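 Test chemicals were formulated with surfactant in a non-phytotoxic solvent and sprayed both on freshly planted seeds (preemergence) and on 1- to 4-leaf plants of 2–18 cm (postemergence). Flooded-paddy pots received compound directly into 3 cm of standing water, maintained for the test.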

catchweed bedstraw = assay: Test C pre-/postemergence test; assay type: in vivo, Galium aparine
Method in brief: as §2

bermudagrass = assay: Test C pre-/postemergence test; assay type: in vivo, Cynodon dactylon
Method in brief: as §2

Surinam grass = assay: Test C pre-/postemergence test; assay type: in vivo, Brachiaria decumbens
Method in brief: as §2

crabgrass = assay: Test C pre-/postemergence test; assay type: in vivo, Digitaria sanguinalis
Method in brief: as §2

giant foxtail [2] = assay: Test C pre-/postemergence test; assay type: in vivo, Setaria faberii
Method in brief: as §2

johnsongrass = assay: Test C pre-/postemergence test; assay type: in vivo, Sorghum halepense
Method in brief: as §2

lambsquarters = assay: Test C pre-/postemergence test; assay type: in vivo, Chenopodium album
Method in brief: as §2

morningglory = assay: Test C pre-/postemergence test; assay type: in vivo, Ipomoea coccinea
Method in brief: as §2

pigweed = assay: Test C pre-/postemergence test; assay type: in vivo, Amaranthus retroflexus
Method in brief: as §2

soybean = assay: Test C pre-/postemergence test; assay type: in vivo, Glycine max
Method in brief: as §2

rice = assay: Test C flooded paddy test; assay type: in vivo, Oryza sativa; conditions: Flood
Method in brief: (§3)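 Compound was added to standing water 3 cm above soil, flood maintained, and plants held in a greenhouse before visual scoring against controls at 13 to 15 days.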

barnyardgrass = assay: Test C flooded paddy test; assay type: in vivo, Echinochloa crus-galli; conditions: Flood
Method in brief: as §3

[3] = Postemergence, 125 g ai/ha, 0 is no effect, 100 is complete control
[4] = Postemergence, 500 g ai/ha, 0 is no effect, 100 is complete control
[5] = Preemergence, 125 g ai/ha, 0 no effect, 100 complete control
[6] = Preemergence, 500 g ai/ha, 0 to 100 scale where 0 is no effect and 100 is complete control
[7] = 31 g ai/ha, Preemergence, scale 0 to 100
[8] = 62 g ai/ha, preemergence, scale 0 (no effect) to 100 (complete control)
[9] = preemergence, 125 g ai/ha, scale 0 (no effect) to 100 (complete control)
[10] = 31 g ai/ha, scale 0 to 100 (0 no effect, 100 complete control)
[11] = 62 g ai/ha, scale 0 to 100, 0 no effect, 100 complete control, 13 to 15 days
[12] = 125 g ai/ha, scale 0 to 100, 0 no effect, 100 complete control, 13 to 15 days
[13] = 250 g ai/ha, scale 0 to 100 (0 no effect, 100 complete control)

Cn1nc(C(F)(F)F)c(CS(=O)(=O)c2cccc[n+]2[O-])c1Cl [Compound 9]
Foxtail, Giant plant response rating (giant foxtail [1]; [3]): 90 | Foxtail, Giant plant response rating (giant foxtail [1]; [4]): 90 | Foxtail, Giant plant response rating (giant foxtail [1]; [5]): 100 | Plant response rating, Foxtail, Giant (giant foxtail [1]; [6]): 100 | Velvetleaf plant response rating (velvetleaf; [3]): 0 | Velvetleaf plant response rating (velvetleaf; [4]): 30 | Velvetleaf plant response rating (velvetleaf; [5]): 50 | Plant response rating, Velvetleaf (velvetleaf; [6]): 60 | Wheat plant response rating (wheat; [3]): 40 | Wheat plant response rating (wheat; [4]): 60 | Wheat plant response rating (wheat; [5]): 50 | Plant response rating, Wheat (wheat; [6]): 70 | Corn plant response rating (corn; [3]): 20 | Corn plant response rating (corn; [4]): 60 | Corn plant response rating (corn; [5]): 40 | Plant response rating, Corn (corn; [6]): 60 | Bromegrass, Downy plant response rating (downy brome; [7]): 0 | Bromegrass, Downy plant response rating (downy brome; [8]): 0 | Plant response rating (0 to 100), Bromegrass, Downy (downy brome; Preemergence, 250 g ai/ha): 20 | Bromegrass, Downy plant response rating (downy brome; [9]): 20 | Galium plant response rating (catchweed bedstraw; [7]): 0 | Galium plant response rating (catchweed bedstraw; [8]): 100 | Plant response rating (0 to 100), Galium (catchweed bedstraw; Preemergence, 250 g ai/ha): 100 | Galium plant response rating (catchweed bedstraw; [9]): 100 | Bermudagrass plant response rating (bermudagrass; [7]): 98 | Plant response rating (0 to 100), Bermudagrass (bermudagrass; Preemergence, 250 g ai/ha): 100 | Bermudagrass plant response rating (bermudagrass; [9]): 100 | Plant response rating (0 to 100), Surinam Grass (Surinam grass; Preemergence, 250 g ai/ha): 100 | Surinam Grass plant response rating (Surinam grass; [9]): 85 | Crabgrass, Large plant response rating (crabgrass; [7]): 100 | Plant response rating (0 to 100), Crabgrass, Large (crabgrass; Preemergence, 250 g ai/ha): 100 | Crabgrass, Large plant response rating (crabgrass; [9]): 100 | Foxtail, Giant plant response rating (giant foxtail [2]; [7]): 85 | Plant response rating (0 to 100), Foxtail, Giant (giant foxtail [2]; Preemergence, 250 g ai/ha): 100 | Foxtail, Giant plant response rating (giant foxtail [2]; [9]): 100 | Johnsongrass plant response rating (johnsongrass; [7]): 45 | Plant response rating (0 to 100), Johnsongrass (johnsongrass; Preemergence, 250 g ai/ha): 100 | Johnsongrass plant response rating (johnsongrass; [9]): 100 | Lambsquarters plant response rating (lambsquarters; [7]): 0 | Plant response rating (0 to 100), Lambsquarters (lambsquarters; Preemergence, 250 g ai/ha): 100 | Lambsquarters plant response rating (lambsquarters; [9]): 80 | Morningglory plant response rating (morningglory; [7]): 0 | Plant response rating (0 to 100), Morningglory (morningglory; Preemergence, 250 g ai/ha): 100 | Morningglory plant response rating (morningglory; [9]): 90 | Pigweed plant response rating (pigweed; [7]): 100 | Plant response rating (0 to 100), Pigweed (pigweed; Preemergence, 250 g ai/ha): 100 | Pigweed plant response rating (pigweed; [9]): 100 | Soybean plant response rating (soybean; [7]): 10 | Plant response rating (0 to 100), Soybean (soybean; Preemergence, 250 g ai/ha): 45 | Soybean plant response rating (soybean; [9]): 40 | Plant response rating, Rice (rice; [10]): 10 | Plant response rating, Rice (rice; [11]): 40 | Plant response rating, Rice (rice; [12]): 70 | Plant response rating, Rice (rice; [13]): 70 | Plant response rating, Barnyardgrass (barnyardgrass; [10]): 0 | Plant response rating, Barnyardgrass (barnyardgrass; [11]): 60 | Plant response rating, Barnyardgrass (barnyardgrass; [12]): 85 | Plant response rating, Barnyardgrass (barnyardgrass; [13]): 90
